Assay results from patent US12209102B2, “Heterocyclic compounds and uses thereof” (Kumquat Biosciences Inc., priority 2022, dated 2025).

Tests used:
Format in all cases: biochemical
K-Ras G12V = target: T1, K-Ras G12V (Homo sapiens, UniProt P01116, G12V); experiment: HTRF resonance energy transfer assay, K-Ras G12V / SOS1 interaction; settings: HTRF assay of Example 5; read-out: IC50 against K-Ras G12V
T1 construct: made in house; host or cells: E. coli BL21 (DE3)
From the text: (§1) This assay can be also used to assess a selective inhibition or reduction of signaling output of a mutant Ras protein relative to a wildtype, or relative to a different mutant Ras protein. For example, the equilibrium interaction of wildtype Kras or K-Ras mutant (e.g., wildtype or a mutant thereof) with SOS1 (e.g., hSOS1) can be assessed as a proxy or an indication for a subject compound's ability to bind and inhibit Ras protein. HTRF assay detects from (i) a fluorescence resonance energy transfer (FRET) donor (e.g., antiGST-Europium) that is bound to GST-tagged K-Ras mutant to (ii) a FRET acceptor (e.g., anti-6His-XL665) bound to a His-tagged hSOS1.
(§2) The assay buffer can contain˜5 mM HEPES pH 7.4, ˜150 mM NaCl, ˜ 1 mM DTT, 0.05% BSA and 0.0025%(v/v) Igepal. A Ras working solution is prepared in an assay buffer containing typically a suitable amount of the protein construct (e.g., GST-tagged K-Ras mutant) and the FRET donor (e.g., antiGST-Eu(K) from Cisbio, France). A SOS1 working solution is prepared in an assay buffer containing suitable amount of the protein construct (e.g., His-hSOS1) and the FRET acceptor (e.g., anti-6His-XL665 from Cisbio, France). A suitable amount of the protein construct will depend on the range of activity or range of IC50 values being detected or under investigation. For detecting IC50 within a range of 500 nM, the protein constructs of the same range of molarity can be utilized.
(§3) A fixed volume of DMSO with or without test compound is transferred into a 384-well plate. Ras working solution is added to all wells of the test plate. SOS1 working solution is added to all wells except for those that are subsequently filled the inhibitor control solution. Upon incubation for about 10 minutes or longer, the fluorescence is measured with a M1000Pro plate reader (Tecan) using HTRF detection (excitation 337 nm, emission 1: 620 nm, emission 2: 665 nm). Compounds are tested in duplicates at different concentrations (for example, 10 μM, 2.5 μM, 0.63 μM, 0.16 μM, 0.04 μM, 0.01 μM test compound). The ratiometric data (i.e., emission 2 divided by emission 1) is used to calculate IC50 values against Ras using GraphPad Prism (GraphPad software). Following this general procedure, samples were tested with or without a subject compound disclosed herein including compounds exemplified in Table 1 to assess their abilities to inhibit a K-Ras mutant relative to another mutant or WT. Signaling output measured in terms of IC50 values can be obtained, a ratio of IC50 against one mutant relative to another mutant can be calculated. For instance, a selective reduction of K-Ras G12D signaling output can be evidenced by a ratio greater than one. In particular, a selective reduction of K-Ras G12D signaling relative to K-Ras WT signaling is evidenced as the ratio of IC50 (against K-Ras WT) to IC50 (against K-Ras G12D) is greater than 1.

K-Ras G12S = target: T2, K-Ras G12S (Homo sapiens, UniProt P01116, G12S); experiment: HTRF resonance energy transfer assay, K-Ras G12S / SOS1 interaction; settings: HTRF assay of Example 5; read-out: IC50 against K-Ras G12S
T2 construct: made in house; host or cells: E. coli BL21 (DE3)
From the text: as §1, §2, §3

K-Ras WT = target: T3, K-Ras WT (Homo sapiens, UniProt P01116); experiment: HTRF resonance energy transfer assay, K-Ras WT / SOS1 interaction; settings: HTRF assay of Example 5; read-out: IC50 against K-Ras WT
T3 construct: made in house; host or cells: E. coli BL21 (DE3)
From the text: as §1, §2, §3

T2 sequence (P01116 1-188 isoform P01116-2 G12S): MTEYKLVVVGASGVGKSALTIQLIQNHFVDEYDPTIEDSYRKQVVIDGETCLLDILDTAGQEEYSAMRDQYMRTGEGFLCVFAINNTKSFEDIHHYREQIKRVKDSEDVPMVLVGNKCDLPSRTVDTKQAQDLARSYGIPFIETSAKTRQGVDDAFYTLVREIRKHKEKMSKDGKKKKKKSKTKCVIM
T3 sequence (P01116 1-188 isoform P01116-2): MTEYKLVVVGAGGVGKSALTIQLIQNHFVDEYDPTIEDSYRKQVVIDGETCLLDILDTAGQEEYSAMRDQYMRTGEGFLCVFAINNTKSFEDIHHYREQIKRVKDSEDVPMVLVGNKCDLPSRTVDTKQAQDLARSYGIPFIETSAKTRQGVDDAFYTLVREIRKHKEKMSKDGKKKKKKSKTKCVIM
T1 sequence (P01116 1-188 isoform P01116-2 G12V): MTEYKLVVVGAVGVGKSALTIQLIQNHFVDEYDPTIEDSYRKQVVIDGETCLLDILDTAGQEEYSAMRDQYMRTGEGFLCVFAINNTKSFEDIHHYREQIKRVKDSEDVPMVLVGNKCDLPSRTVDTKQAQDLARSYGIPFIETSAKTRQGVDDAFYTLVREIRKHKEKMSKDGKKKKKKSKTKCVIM

| Compound | IC50 (K-Ras G12V) | IC50 (K-Ras G12S) | IC50 (K-Ras WT) |
| --- | --- | --- | --- |
| C[C@@H]1CC(CO)Oc2c(Cl)c(-c3ccc(F)c4sc(N)c(C#N)c34)c(F)c3nc(OC[C@@]45CCCN4C[C@H](F)C5)nc(c23)N1 (stereo partly drawn) [Compound 1210, 2-amino-4-((5R)-9-chloro-11-fluoro-2-(((2R,7aS)-2-fluorotetrahydro-1H-pyrrolizin-7a(5H)-yl)methoxy)-7-(hydroxymethyl)-5-methyl-4,5,6,7-tetrahydro-[1,5]oxazocino[4,3,2-de]quinazolin-10-yl)-7-fluorobenzo[b]thiophene-3-carbonitrile] | < 0.1 µM | – | – |
| C[C@H](Oc1nc2c3c(c(Cl)c(-c4ccc(F)c5sc(N)c(C#N)c45)c(F)c3n1)OCCN2C1CCCOCC1)[C@@H]1CCCN1C (stereo partly drawn) [Compound 1121, 2-amino-4-(8-chloro-10-fluoro-2-((S)-1-((S)-1-methylpyrrolidin-2-yl)ethoxy)-4-(oxepan-4-yl)-5,6-dihydro-4H-[1,4]oxazepino[5,6,7-de]quinazolin-9-yl)-7-fluorobenzo[b]thiophene-3-carbonitrile] | < 0.1 µM | < 0.1 µM | < 0.1 µM |
| N#Cc1c(N)sc2c(F)ccc(-c3c(Cl)c4c5c(nc(OC[C@@]67CCCN6C[C@H](F)C7)nc5c3F)N(CC(F)F)[C@H](CNC=O)CO4)c12 [Compound 627, N-(((5R)-9-(2-amino-3-cyano-7-fluorobenzo[b]thiophen-4-yl)-8-chloro-4-(2,2-difluoroethyl)-10-fluoro-2-(((2R,7aS)-2-fluorotetrahydro-1H-pyrrolizin-7a(5H)-yl)methoxy)-5,6-dihydro-4H-[1,4]oxazepino[5,6,7-de]quinazolin-5-yl)methyl)formamide] | < 0.1 µM | < 0.1 µM | – |
| N#Cc1c(N)sc2c(F)ccc(-c3c(Cl)c4c5c(nc(OC[C@@]67CCCN6C[C@H](F)C7)nc5c3F)N(CC(F)F)C(C3CCCN3C(=O)[C@H]3CN3)CO4)c12 (stereo partly drawn) [Compound 1007, 2-amino-4-(5-(1-((R)-aziridine-2-carbonyl)pyrrolidin-2-yl)-8-chloro-4-(2,2-difluoroethyl)-10-fluoro-2-(((2R,7aS)-2-fluorotetrahydro-1H-pyrrolizin-7a(5H)-yl)methoxy)-5,6-dihydro-4H-[1,4]oxazepino[5,6,7-de]quinazolin-9-yl)-7-fluorobenzo[b]thiophene-3-carbonitrile] | – | – | < 0.1 µM |
| N#Cc1c(N)sc2c(F)ccc(-c3c(Cl)c4c5c(nc(OC[C@@]67CCCN6C[C@H](F)C7)nc5c3F)N(CC(F)F)C(C3CN(C(=O)C5CN5)C3)CO4)c12 (stereo partly drawn) [Compound 762, 2-amino-4-(5-(1-(aziridine-2-carbonyl)azetidin-3-yl)-8-chloro-4-(2,2-difluoroethyl)-10-fluoro-2-(((2R,7aS)-2-fluorotetrahydro-1H-pyrrolizin-7a(5H)-yl)methoxy)-5,6-dihydro-4H-[1,4]oxazepino[5,6,7-de]quinazolin-9-yl)-7-fluorobenzo[b]thiophene-3-carbonitrile] | < 0.1 µM | < 0.1 µM | < 0.1 µM |
| N#Cc1c(N)sc2c(F)ccc(-c3c(Cl)c4c5c(nc(OC[C@@]67CCCN6C[C@H](F)C7)nc5c3F)N(C3CCOC3)[C@@H](C3(C#N)CC3)CO4)c12 (stereo partly drawn) [Compound 1130, 2-amino-4-((5S)-8-chloro-5-(1-cyanocyclopropyl)-10-fluoro-2-(((2R,7aS)-2-fluorotetrahydro-1H-pyrrolizin-7a(5H)-yl)methoxy)-4-(tetrahydrofuran-3-yl)-5,6-dihydro-4H-[1,4]oxazepino[5,6,7-de]quinazolin-9-yl)-7-fluorobenzo[b]thiophene-3-carbonitrile] | < 0.1 µM | < 0.1 µM | < 0.1 µM |
| C=C(F)C1COc2c(Cl)c(-c3ccc(F)c4sc(N)c(C#N)c34)c(F)c3nc(OC[C@@]45CCCN4C[C@H](F)C5)nc(c23)N1CC(F)F (stereo partly drawn) [Compound 651, 2-amino-4-(8-chloro-4-(2,2-difluoroethyl)-10-fluoro-2-(((2R,7aS)-2-fluorotetrahydro-1H-pyrrolizin-7a(5H)-yl)methoxy)-5-(1-fluorovinyl)-5,6-dihydro-4H-[1,4]oxazepino[5,6,7-de]quinazolin-9-yl)-7-fluorobenzo[b]thiophene-3-carbonitrile] | < 0.1 µM | – | – |
| C[C@@H](O)[C@@H]1COc2c(Cl)c(-c3ccc(F)c4sc(N)c(C#N)c34)c(F)c3nc(OC[C@@]45CCCN4C[C@H](F)C5)nc(c23)N1CC(F)F [Compound 1111, 2-amino-4-((5S)-8-chloro-4-(2,2-difluoroethyl)-10-fluoro-2-(((2R,7aS)-2-fluorotetrahydro-1H-pyrrolizin-7a(5H)-yl)methoxy)-5-((R)-1-hydroxyethyl)-5,6-dihydro-4H-[1,4]oxazepino[5,6,7-de]quinazolin-9-yl)-7-fluorobenzo[b]thiophene-3-carbonitrile] | < 0.1 µM | – | – |
| N#Cc1c(N)sc2c(F)ccc(-c3c(Cl)c4c5c(nc(OC[C@@]67CCCN6C[C@H](F)C7)nc5c3F)N(CC(F)F)C(C3CCN3C(=O)C3CN3)CO4)c12 (stereo partly drawn) [Compound 666, 2-amino-4-(5-(1-(aziridine-2-carbonyl)azetidin-2-yl)-8-chloro-4-(2,2-difluoroethyl)-10-fluoro-2-(((2R,7aS)-2-fluorotetrahydro-1H-pyrrolizin-7a(5H)-yl)methoxy)-5,6-dihydro-4H-[1,4]oxazepino[5,6,7-de]quinazolin-9-yl)-7-fluorobenzo[b]thiophene-3-carbonitrile] | – | < 0.1 µM | < 0.1 µM |

The next lines start with the values.

| IC50 (K-Ras G12V) | IC50 (K-Ras G12S) | IC50 (K-Ras WT) | Compound |
| --- | --- | --- | --- |
| < 0.1 µM | < 0.1 µM | < 0.1 µM | N#Cc1c(N)sc2c(F)ccc(-c3c(Cl)c4c5c(nc(OC[C@@]67CCCN6C[C@H](F)C7)nc5c3F)N(CC(F)F)C(c3cnco3)CO4)c12 (single isomer, unassigned) [Compound 860] |
| < 0.1 µM | < 0.1 µM | < 0.1 µM | CN1c2nc(OC[C@@]34CCCN3C[C@H](F)C4)nc3c(F)c(-c4ccc(F)c5sc(N)c(C#N)c45)c(Cl)c(c23)OCC[C@H]1C1(F)CC1 [Compound 1221, 2-amino-4-((5S)-9-chloro-11-fluoro-5-(1-fluorocyclopropyl)-2-(((2R,7aS)-2-fluorotetrahydro-1H-pyrrolizin-7a(5H)-yl)methoxy)-4-methyl-4,5,6,7-tetrahydro-[1,5]oxazocino[4,3,2-de]quinazolin-10-yl)-7-fluorobenzo[b]thiophene-3-carbonitrile] |
| – | < 0.1 µM | < 0.1 µM | N#Cc1c(N)sc2c(F)ccc(-c3c(Cl)c4c5c(nc(OC[C@@]67CCCN6C[C@H](F)C7)nc5c3F)N(C3C5CC3N(C(=O)C(F)F)C5)CCO4)c12 (stereo partly drawn) [Compound 886, 2-amino-4-(8-chloro-4-(2-(2,2-difluoroacetyl)-2-azabicyclo[2.1.1]hexan-5-yl)-10-fluoro-2-(((2R,7aS)-2-fluorotetrahydro-1H-pyrrolizin-7a(5H)-yl)methoxy)-5,6-dihydro-4H-[1,4]oxazepino[5,6,7-de]quinazolin-9-yl)-7-fluorobenzo[b]thiophene-3-carbonitrile] |
| < 0.1 µM | < 0.1 µM | < 0.1 µM | CC(OC(F)F)C12CC(N3CCOc4c(Cl)c(-c5ccc(F)c6sc(N)c(C#N)c56)c(F)c5nc(OC[C@@]67CCCN6C[C@H](F)C7)nc3c45)(C1)C2 (stereo partly drawn) [Compound 1081, 2-amino-4-(8-chloro-4-(3-(1-(difluoromethoxy)ethyl)bicyclo[1.1.1]pentan-1-yl)-10-fluoro-2-(((2R,7aS)-2-fluorotetrahydro-1H-pyrrolizin-7a(5H)-yl)methoxy)-5,6-dihydro-4H-[1,4]oxazepino[5,6,7-de]quinazolin-9-yl)-7-fluorobenzo[b]thiophene-3-carbonitrile] |
